# Values quoted from earlier work, collected in patent US20190256487A1, “HYDROXYN[…]” (BioPharmaWorks, LLC, priority 2016, published 2019).
# Columns and labels:
# [1] = mice
# [2] = mice; remark: listed apart in the source
structure (smiles),measurement,setting,value
"N[C@@]1(c2ccccc2Cl)CCC[C@@H](O)C1=O [(2R,6R)-HNK, (2R,6R)-hydroxynorketamine]",antidepressant actions,[1],rapid and sustained antidepressant actions
same,ketamine-related side effects,[2],lacks ketamine-related side effects
